Measured values: patent US20260327221A1, “INHIBITORS OF CYCLIC GMP-AMP SYNTHASE AND USES THEREOF” (Ventus Therapeutics U.S., Inc., priority 2023, published 2026)

Molecular target: hcGAS (Homo sapiens, UniProt Q8N884)
Assay: hcGAS LCMS assay (direct measurement of cGAMP production by LC/MS)
Assay type: biochemical
Conditions: 4 h incubation with enzyme and substrates; cGAMP production by LC/MS; class symbols; read-out: hcGAS LCMS IC50
In short: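 Enzyme, substrates (ATP, GTP) and compound incubated 4 h, then quenched with acetonitrile/water containing 0.15 uM 13C/15N-labeled cGAMP internal standard. cGAMP formed quantified directly by LC/MS on HILIC amide column; IC50 values reported in potency bins.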

hcGAS, sequence (Q8N884 whole entry): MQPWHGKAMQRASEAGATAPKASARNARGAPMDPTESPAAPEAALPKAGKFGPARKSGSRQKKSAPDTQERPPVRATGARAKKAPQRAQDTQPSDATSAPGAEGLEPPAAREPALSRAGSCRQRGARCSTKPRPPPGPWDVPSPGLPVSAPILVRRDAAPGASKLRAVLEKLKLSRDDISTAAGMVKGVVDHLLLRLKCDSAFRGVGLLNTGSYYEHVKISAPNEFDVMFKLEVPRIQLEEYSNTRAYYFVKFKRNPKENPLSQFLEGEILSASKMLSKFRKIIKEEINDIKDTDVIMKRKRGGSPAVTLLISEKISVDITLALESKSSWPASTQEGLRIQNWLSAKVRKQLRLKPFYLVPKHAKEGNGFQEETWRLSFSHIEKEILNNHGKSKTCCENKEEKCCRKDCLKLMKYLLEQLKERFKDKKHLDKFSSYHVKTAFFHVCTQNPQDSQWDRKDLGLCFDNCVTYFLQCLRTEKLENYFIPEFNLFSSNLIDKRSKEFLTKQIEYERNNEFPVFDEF

Row | SMILES | IC50 [nM]
1 | COCCOc1c(-c2c(C#N)cccc2OC(F)F)cc(C(=O)Nc2nnc(-n3nccc3N)s2)oc1=O [Compound 74, N-(5-(5-amino-1H-pyrazol-1-yl)-1,3,4-thiadiazol-2-yl)-4-(2-cyano-6-(difluoromethoxy)phenyl)-3-(2-methoxyethoxy)-2-oxo-2H-pyran-6-carboxamide] | 0.5 to 1
2 | COc1cccc(OC)c1-c1cc(C(=O)Nc2nnc(-n3nccc3N)s2)oc(=O)c1OCCN1CCSCC1=O [Compound 75, N-(5-(5-amino-1H-pyrazol-1-yl)-1,3,4-thiadiazol-2-yl)-4-(2,6-dimethoxyphenyl)-2-oxo-3-(2-(3-oxothiomorpholino)ethoxy)-2H-pyran-6-carboxamide] | 0.5 to 1
3 | COc1cccc(OC)c1-c1cc(C(=O)Nc2nnc(-n3nccc3N)s2)oc(=O)c1OCCCN1CCSCC1 [Compound 88, N-(5-(5-amino-1H-pyrazol-1-yl)-1,3,4-thiadiazol-2-yl)-4-(2,6-dimethoxyphenyl)-2-oxo-3-(3-thiomorpholinopropoxy)-2H-pyran-6-carboxamide] | 0.5 to 1
4 | COc1cccc(OC)c1-c1cc(C(=O)Nc2nnc(-n3nccc3N)s2)oc(=O)c1OCCN1CCCSCC1 [Compound 89, 3-(2-(1,4-thiazepan-4-yl)ethoxy)-N-(5-(5-amino-1H-pyrazol-1-yl)-1,3,4-thiadiazol-2-yl)-4-(2,6-dimethoxyphenyl)-2-oxo-2H-pyran-6-carboxamide] | 0.5 to 1
5 | COc1cccc(OC)c1-c1cc(C(=O)Nc2nnc(-n3nccc3N)s2)oc(=O)c1OCC(=O)N1CCSCC1 [Compound 90, N-(5-(5-amino-1H-pyrazol-1-yl)-1,3,4-thiadiazol-2-yl)-4-(2,6-dimethoxyphenyl)-2-oxo-3-(2-oxo-2-thiomorpholinoethoxy)-2H-pyran-6-carboxamide] | < 0.5
6 | COc1cccc(OC)c1-c1cc(C(=O)Nc2nnc(-n3nccc3N)s2)oc(=O)c1OCCN1C2CSCC1C2 [Compound 94, 3-(2-(3-thia-6-azabicyclo[3.1.1]heptan-6-yl)ethoxy)-N-(5-(5-amino-1H-pyrazol-1-yl)-1,3,4-thiadiazol-2-yl)-4-(2,6-dimethoxyphenyl)-2-oxo-2H-pyran-6-carboxamide] | 0.5 to 1

Second part, the compound after the results:

Row | IC50 [nM] | SMILES
7 | 1 to 5 | COc1cccnc1-c1cc(C(=O)Nc2nnc(-n3nccc3N)s2)oc(=O)c1O[C@@H](C)CO [Compound 107A, (S)—N-(5-(5-amino-1H-pyrazol-1-yl)-1,3,4-thiadiazol-2-yl)-3-((1-hydroxypropan-2-yl)oxy)-4-(3-methoxypyridin-2-yl)-2-oxo-2H-pyran-6-carboxamide]
8 | 0.5 to 1 | COc1cccnc1-c1cc(C(=O)Nc2nnc(-n3nccc3N)s2)oc(=O)c1O[C@H](C)CO [Compound 107B, (R)-N-(5-(5-amino-1H-pyrazol-1-yl)-1,3,4-thiadiazol-2-yl)-3-((1-hydroxypropan-2-yl)oxy)-4-(3-methoxypyridin-2-yl)-2-oxo-2H-pyran-6-carboxamide]
9 | < 0.5 | COc1cccc(OC)c1-c1cc(C(=O)Nc2nnc(-n3nccc3N)s2)oc(=O)c1O[C@H]1CC[C@H](O)CC1 [Compound 108A, N-(5-(5-amino-1H-pyrazol-1-yl)-1,3,4-thiadiazol-2-yl)-4-(2,6-dimethoxyphenyl)-3-(((1r,4r)-4-hydroxycyclohexyl)oxy)-2-oxo-2H-pyran-6-carboxamide]
10 | 1 to 5 | COc1cccc(OC)c1-c1cc(C(=O)Nc2nnc(-n3nccc3N)s2)oc(=O)c1O[C@H]1CC[C@@H](O)CC1 [Compound 108B, N-(5-(5-amino-1H-pyrazol-1-yl)-1,3,4-thiadiazol-2-yl)-4-(2,6-dimethoxyphenyl)-3-(((1s,4s)-4-hydroxycyclohexyl)oxy)-2-oxo-2H-pyran-6-carboxamide]
